Reference: US10556865B2, “Synergistic herbicidal composition containing certain pyridine or pyrimidine carboxylic acids and certain cereal and rice herbicides” (Dow AgroSciences, LLC, priority 2007, dated 2020)
Like-named read-outs stand apart in the source and are kept apart here.

Experiments:
Assay in all cases: Postemergence herbicidal activity of mixtures in cereal crops (greenhouse, visual injury)
Assay type in all cases: in vivo
[1] = system: wild oats (Avena fatua L; AVEFA)
In short: (§1)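 Plants at second-third true leaf stage sprayed postemergence at 187 L/ha with compound and second cereal herbicide alone and combined; solvent blank controls. Visual injury scored 0-100% versus controls after 20-22 days; expected mixture effects by Colby's equation.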

[2] = system: annual ryegrass (Lolium multiflorum L; LOLMG)
In short: as §1

[3] = system: littleseed Canarygrass (Phalaris minor L; PHAMI); settings: for PHAMI: Table 13
In short: as §1

[4] = system: windgrass (Apera spica-venti L; APESV); settings: for pest or weed control at 17.5 g/ha / pest or weed control at 35 g/ha / pest or weed control at 70 g/ha / pest or weed control at 140 g/ha / pest or weed control at 8.75 g/ha: Apera spica-venti, post-emergence, read-out: APESV Ob
In short: as §1

[5] = system: scented mayweed (Matricaria chamomila L; MATCH); settings: Matricaria, post-emergence, read-out: MATCH Ob
In short: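 Weeds grown in greenhouse (~14 h photoperiod, ~18/17 °C day/night) to second–third true leaf stage, sprayed postemergence with compound and second cereal herbicide alone or combined; solvent-blank controls. Injury scored visually after 20-22 days, 0–100% (complete kill); expected mixture activity = A+B−(A×B/100).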

## COC(=O)c1nc(-c2ccc(Cl)c(OC)c2F)cc(N)c1Cl [Compound A Methyl, 4-amino-3-chloro-6-(4-chloro-2-fluoro-3-methoxyphenyl)pyridine-2-carboxylic acid methyl ester]
[1]; 17.5 g/ha, Table 1
  AVEFA Ob: 30%
[1]; 17.5 g/ha, Table 4
  AVEFA Ob: 0%
[1]; 17.5 g/ha, Table 5
  AVEFA Ob: 0%
[1]; 35 g/ha, Table 1
  AVEFA Ob: 30%
[1]; 35 g/ha, Table 3
  AVEFA Ob: 40%
[1]; 35 g/ha, Table 4
  AVEFA Ob: 40%
[1]; 35 g/ha, Table 5
  AVEFA Ob: 40%
[1]; 70 g/ha, Table 1
  AVEFA Ob: 35%
[1]; 70 g/ha, Table 3
  AVEFA Ob: 45%
[1]; 70 g/ha, Table 4
  AVEFA Ob: 45%
[1]; 70 g/ha, Table 5
  AVEFA Ob: 45%
[2]; 17.5 g/ha, Table 1
  LOLMG Ob: 20%
[2]; 17.5 g/ha, Table 2
  LOLMG Ob: 20%
[2]; 35 g/ha, Table 1
  LOLMG Ob: 40%
[2]; 35 g/ha, Table 2
  LOLMG Ob: 40%
[2]; 70 g/ha, Table 1
  LOLMG Ob: 0%
[2]; 70 g/ha, Table 2
  LOLMG Ob: 60%
[3]; 17.5 g/ha, Table 4
  PHAMI Ob: 20%
[3]; 17.5 g/ha, Table 5
  PHAMI Ob: 20%
[3]; 17.5 g/ha, Table 6
  PHAMI Ob: 20%
[3]; 35 g/ha, Table 3
  PHAMI Ob: 30%
[3]; 35 g/ha, Table 4
  PHAMI Ob: 30%
[3]; 35 g/ha, Table 5
  PHAMI Ob: 30%
[3]; 35 g/ha, Table 6
  PHAMI Ob: 30%
[3]; 35 g/ha, Table 11
  PHAMI Ob: 3%
[3]; 70 g/ha, Table 3
  PHAMI Ob: 35%
[3]; 70 g/ha, Table 4
  PHAMI Ob: 35%
[3]; 70 g/ha, Table 5
  PHAMI Ob: 35%
[3]; 70 g/ha, Table 6
  PHAMI Ob: 35%
[3]; 70 g/ha, Table 11
  PHAMI Ob: 6%
[3]; 140 g/ha, Table 11
  PHAMI Ob: 17%
[4]; 17.5 g/ha, Table 1
  pest or weed control at 17.5 g/ha: 20%
[4]; 17.5 g/ha, Table 4
  pest or weed control at 17.5 g/ha: 0%
[4]; 17.5 g/ha, Table 5
  pest or weed control at 17.5 g/ha: 0%
[4]; 35 g/ha, Table 1
  pest or weed control at 35 g/ha: 20%
[4]; 35 g/ha, Table 3
  pest or weed control at 35 g/ha: 10%
[4]; 35 g/ha, Table 4
  pest or weed control at 35 g/ha: 10%
[4]; 35 g/ha, Table 5
  pest or weed control at 35 g/ha: 10%
[4]; 70 g/ha, Table 1
  pest or weed control at 70 g/ha: 30%
[4]; 70 g/ha, Table 3
  pest or weed control at 70 g/ha: 10%
[4]; 70 g/ha, Table 4
  pest or weed control at 70 g/ha: 10%
[4]; 70 g/ha, Table 5
  pest or weed control at 70 g/ha: 10%
[5]; 17.5 g/ha
  pest or weed control at 17.5 g/ha: 15%
[5]; 35 g/ha
  pest or weed control at 35 g/ha: 68%
[5]; 70 g/ha
  pest or weed control at 70 g/ha: 65%

## COc1c(Cl)ccc(-c2cc(N)c(Cl)c(C(=O)O)n2)c1F [Compound A TEA, 4-amino-3-chloro-6-(4-chloro-2-fluoro-3-methoxyphenyl)pyridine-2-carboxylic acid]
[1]; 35 g/ha, Table 14
  AVEFA Ob: 0%
[1]; 35 g/ha, Table 17
  AVEFA Ob: 0%
[1]; 35 g/ha, Table 18
  AVEFA Ob: 0%
[1]; 70 g/ha, Table 14
  AVEFA Ob: 0%
[1]; 70 g/ha, Table 17
  AVEFA Ob: 3%
[1]; 70 g/ha, Table 18
  AVEFA Ob: 0%
[1]; 140 g/ha, Table 14
  AVEFA Ob: 0%
[1]; 140 g/ha, Table 17
  AVEFA Ob: 8%
[1]; 140 g/ha, Table 18
  AVEFA Ob: 0%
[2]; 35 g/ha, Table 13
  LOLMG Ob: 0%
[2]; 70 g/ha, Table 13
  LOLMG Ob: 0%
[2]; 140 g/ha, Table 13
  LOLMG Ob: 0%
[3]; 35 g/ha
  PHAMI: 0%
[3]; 35 g/ha, Table 16
  PHAMI Ob: 0%
[3]; 35 g/ha, Table 18
  PHAMI Ob: 0%
[3]; 70 g/ha
  PHAMI: 0%
[3]; 70 g/ha, Table 16
  PHAMI Ob: 0%
[3]; 70 g/ha, Table 18
  PHAMI Ob: 0%
[3]; 140 g/ha
  PHAMI: 0%
[3]; 140 g/ha, Table 16
  PHAMI Ob: 0%
[3]; 140 g/ha, Table 18
  PHAMI Ob: 0%
[4]; 35 g/ha, Table 14
  pest or weed control at 35 g/ha: 8%
[4]; 35 g/ha, Table 15
  pest or weed control at 35 g/ha: 3%
[4]; 35 g/ha, Table 16
  pest or weed control at 35 g/ha: 3%
[4]; 35 g/ha, Table 17
  pest or weed control at 35 g/ha: 3%
[4]; 35 g/ha, Table 18
  pest or weed control at 35 g/ha: 8%
[4]; 70 g/ha, Table 14
  pest or weed control at 70 g/ha: 13%
[4]; 70 g/ha, Table 15
  pest or weed control at 70 g/ha: 0%
[4]; 70 g/ha, Table 16
  pest or weed control at 70 g/ha: 0%
[4]; 70 g/ha, Table 17
  pest or weed control at 70 g/ha: 0%
[4]; 70 g/ha, Table 18
  pest or weed control at 70 g/ha: 13%
[4]; Table 14
  pest or weed control at 140 g/ha: 15%
[4]; Table 15
  pest or weed control at 140 g/ha: 4%
[4]; Table 16
  pest or weed control at 140 g/ha: 4%
[4]; Table 17
  pest or weed control at 140 g/ha: 4%
[4]; Table 18
  pest or weed control at 140 g/ha: 15%
[5]; 8.75 g/ha alone
  pest or weed control at 8.75 g/ha: 71%
[5]; 8.75 g/ha
  pest or weed control at 8.75 g/ha: 71%
[5]; 17.5 g/ha alone
  pest or weed control at 17.5 g/ha: 76%
[5]; 17.5 g/ha
  pest or weed control at 17.5 g/ha: 76%
[5]; 35 g/ha alone
  pest or weed control at 35 g/ha: 84%
[5]; 70 g/ha alone
  pest or weed control at 70 g/ha: 94%
[5]; 140 g/ha
  pest or weed control at 140 g/ha: 65%

## COC(=O)c1nc(-c2ccc(Cl)c(OC)c2F)nc(N)c1Cl [Compound B Methyl, 6-amino-5-chloro-2-(4-chloro-2-fluoro-3-methoxyphenyl)pyrimidine-4-carboxylic acid methyl ester]
[1]; 8.75 g/ha
  AVEFA Ob: 0%
[1]; 8.75 g/ha, Table 20
  AVEFA Ob: 0%
[1]; 17.5 g/ha
  AVEFA Ob: 0%
[1]; 17.5 g/ha, Table 20
  AVEFA Ob: 0%
[1]; 35 g/ha
  AVEFA Ob: 0%
[1]; 35 g/ha, Table 20
  AVEFA Ob: 0%
[1]; 70 g/ha
  AVEFA Ob: 0%
[1]; 70 g/ha, Table 20
  AVEFA Ob: 0%
[2]; 8.75 g/ha
  LOLMG Ob: 0%
[2]; 8.75 g/ha, Table 22
  LOLMG Ob: 0%
[2]; 17.5 g/ha
  LOLMG Ob: 0%
[2]; 17.5 g/ha, Table 22
  LOLMG Ob: 0%
[2]; 35 g/ha
  LOLMG Ob: 0%
[2]; 35 g/ha, Table 22
  LOLMG Ob: 0%
[2]; 70 g/ha
  LOLMG Ob: 0%
[2]; 70 g/ha, Table 22
  LOLMG Ob: 0%
[3]; 8.75 g/ha
  PHAMI Ob: 0%
[3]; 8.75 g/ha, Table 20
  PHAMI Ob: 0%
[3]; 8.75 g/ha, Table 22
  PHAMI Ob: 0%
[3]; 17.5 g/ha
  PHAMI Ob: 0%
[3]; 17.5 g/ha, Table 20
  PHAMI Ob: 0%
[3]; 17.5 g/ha, Table 22
  PHAMI Ob: 0%
[3]; 35 g/ha
  PHAMI Ob: 0%
[3]; 35 g/ha, Table 20
  PHAMI Ob: 0%
[3]; 35 g/ha, Table 22
  PHAMI Ob: 0%
[3]; 70 g/ha
  PHAMI Ob: 0%
[3]; 70 g/ha, Table 20
  PHAMI Ob: 0%
[3]; 70 g/ha, Table 22
  PHAMI Ob: 0%
[4]; 8.75 g/ha
  APESV Ob: 0%
[4]; 17.5 g/ha
  APESV Ob: 0%
[4]; 35 g/ha
  APESV Ob: 0%
[4]; 70 g/ha
  APESV Ob: 0%
[4]; 8.75 g/ha, Table 20
  pest or weed control at 8.75 g/ha: 0%
[4]; 8.75 g/ha, Table 22
  pest or weed control at 8.75 g/ha: 0%
[4]; 17.5 g/ha, Table 20
  pest or weed control at 17.5 g/ha: 0%
[4]; 17.5 g/ha, Table 22
  pest or weed control at 17.5 g/ha: 0%
[4]; 35 g/ha, Table 20
  pest or weed control at 35 g/ha: 0%
[4]; 35 g/ha, Table 22
  pest or weed control at 35 g/ha: 0%
[4]; 70 g/ha, Table 20
  pest or weed control at 70 g/ha: 0%
[4]; 70 g/ha, Table 22
  pest or weed control at 70 g/ha: 0%
[5]; 8.75 g/ha alone
  pest or weed control at 8.75 g/ha: 10%
[5]; 17.5 g/ha alone
  pest or weed control at 17.5 g/ha: 10%
[5]; 35 g/ha alone
  pest or weed control at 35 g/ha: 40%
[5]; 70 g/ha alone
  pest or weed control at 70 g/ha: 45%
